Reference: US7785581B2, “Composition and method for reducing feces toxins and treating digestive disorders” (Qingdao East Sea Pharmaceuticals Ltd., priority 2006, dated 2010)

How the values were obtained:
Format in all cases: in vivo, human
IBS patients = assay: Treatment of IBS with live Bifidobacterium tablets (Example 8)
patients with diarrhea [1] = assay: Treatment of diarrhea associated with cold or raw food, or with common cold (Example 9); settings: 14 to 21 days
patients with diarrhea [2] = assay: Treatment of diarrhea associated with alcohol intake (Example 10); settings: 14 to 21 days
[3] = 57 IBS patients, 14 to 21 days, cured plus effective
[4] = diarrhea after cold/raw food or common cold
[5] = diarrhea after drinking alcohol

Bifidobacterium
Cured % (IBS patients; 57 IBS patients, 14 to 21 days): 61%
Cured Case No. (IBS patients; 57 IBS patients, 14 to 21 days): 35
Effective % (IBS patients; 57 IBS patients, 14 to 21 days): 28%
Effective Case No. (IBS patients; 57 IBS patients, 14 to 21 days): 16
Improved % (IBS patients; 57 IBS patients, 14 to 21 days): 11%
Improved Case No. (IBS patients; 57 IBS patients, 14 to 21 days): 6
Ineffective % (IBS patients; 57 IBS patients, 14 to 21 days): 0%
Ineffective Case No. (IBS patients; 57 IBS patients, 14 to 21 days): 0
Effective Cases % (overall effective rate) (IBS patients; [3]): 89%
Effective Cases Case No. (IBS patients; [3]): 51
other IBS symptoms, such as abdominal pain and discomfort (IBS patients; IBS patients): alleviated
symptoms of diarrhea or constipation (IBS patients; most of the IBS patients): ameliorated
effectiveness in treating diarrhea associated with eating cold or raw foods, or with common cold (patients with diarrhea [1]): highly effective
Cured (cases) (patients with diarrhea [1]; [4]): 23
Effective (cases) (patients with diarrhea [1]; [4]): 14
Improved (cases) (patients with diarrhea [1]; [4]): 5
Ineffective (cases) (patients with diarrhea [1]; [4]): 0
Efficacy (patients with diarrhea [1]; diarrhea after cold/raw food or common cold, cured plus effective): 88.10%
effectiveness in treating diarrhea associated with alcohol intake (patients with diarrhea [2]): highly effective
Cured (cases) (patients with diarrhea [2]; [5]): 21
Effective (cases) (patients with diarrhea [2]; [5]): 13
Improved (cases) (patients with diarrhea [2]; [5]): 4
Ineffective (cases) (patients with diarrhea [2]; [5]): 0
Efficacy (patients with diarrhea [2]; diarrhea after drinking alcohol, cured plus effective): 89.5%
